Our source for the TGI values is PubChem BioAssay (NCI).

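48-hour exposure; five concentrations; linearly interpolated endpoints. At the TGI there is no net growth.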 Where only a bound is given, the exact number is not on record here.

Test systems include KM12 colon; RXF 393 renal; HOP-62 NSCLC; OVCAR-5 ovarian; UO-31 renal; EKVX NSCLC; OVCAR-8 ovarian; A549 NSCLC; HOP-92 NSCLC; 786-0 renal; HL-60(TB) leukemia; A498 renal; NCI-H522 lung; RPMI-8226 leukemia; SK-MEL-5 melanoma; PC-3 prostate; COLO 205 colon; SN12C renal.
Holding throughout (assay): NCI anticancer screen, dose series, 48 h

For `CC1=C(C(=O)N(C(C)C)C(C)C)CC(C(=O)N(C(C)C)C(C)C)=C(C)N1`, the TGI in the assay with KM12 colon, with RXF 393 renal, with HOP-62 NSCLC, in the assay on OVCAR-5 ovarian, in the assay with UO-31 renal and in the assay with EKVX NSCLC was > 100 µM in each case. For the same compound, the TGI in the assay on OVCAR-8 ovarian, in the assay on A549 NSCLC, with HOP-92 NSCLC, in the assay on 786-0 renal, in the assay with HL-60(TB) leukemia and in the assay on A498 renal was > 100 µM each time. Besides, the TGI with NCI-H522 lung, with RPMI-8226 leukemia, in the assay with SK-MEL-5 melanoma, in the assay on PC-3 prostate, with COLO 205 colon and in the assay with SN12C renal was > 100 µM each time.
Consider `N#Cc1ccc(C(=O)/C=C/c2ccc(O)c(O)c2)cc1`, for which the TGI is 30.5 µM with KM12 colon; 32.4 µM in the assay with RXF 393 renal; 32.4 µM in the assay with HOP-62 NSCLC; 33.5 µM in the assay with OVCAR-5 ovarian; 25.1 µM in the assay on UO-31 renal; 31.8 µM in the assay on EKVX NSCLC. For the same compound, the TGI in the assay with OVCAR-8 ovarian was > 54.8 µM; in the assay on A549 NSCLC, 31.8 µM; in the assay on HOP-92 NSCLC, 29.6 µM; in the assay on 786-0 renal it was > 52.9 µM; in the assay on HL-60(TB) leukemia it was 19.8 µM; with A498 renal, 31.9 µM. The TGI in the assay with NCI-H522 lung is 7.54 µM; with RPMI-8226 leukemia it was 25.2 µM; in the assay with SK-MEL-5 melanoma, 28.5 µM; with PC-3 prostate, 30 µM; in the assay with COLO 205 colon, 30.5 µM; in the assay on SN12C renal it was 28.9 µM.
With `COc1ccc(C2=NN(C(N)=S)C(c3ccccc3)C2)cc1` (centres undefined), the TGI with KM12 colon was > 100 µM; in the assay with RXF 393 renal, 88.4 µM; with HOP-62 NSCLC, > 100 µM; with OVCAR-5 ovarian it was > 100 µM; with UO-31 renal, > 100 µM; with EKVX NSCLC it was > 100 µM. Besides, the TGI in the assay on OVCAR-8 ovarian is > 100 µM; in the assay with A549 NSCLC, > 100 µM; with HOP-92 NSCLC, > 100 µM; in the assay on 786-0 renal, > 100 µM; with HL-60(TB) leukemia, 52.9 µM; with A498 renal it was 70.8 µM. Besides, the TGI with NCI-H522 lung was 84.1 µM; with RPMI-8226 leukemia, 74.8 µM; in the assay on SK-MEL-5 melanoma, 32.3 µM; with PC-3 prostate, 97.5 µM; with COLO 205 colon, 58.7 µM; in the assay on SN12C renal it was > 100 µM.
Take `Cc1c(F)c(N)c2c(=O)cc(-c3ccc(N)c(F)c3)oc2c1F`: the TGI is > 100 µM with KM12 colon; 41.6 µM in the assay on RXF 393 renal; 46.8 µM with HOP-62 NSCLC; 15.8 µM in the assay on OVCAR-5 ovarian; 60.1 µM in the assay on UO-31 renal; 54.7 µM with EKVX NSCLC. For the same compound, the TGI with OVCAR-8 ovarian was 58.7 µM; in the assay on A549 NSCLC it was 59 µM; in the assay on HOP-92 NSCLC, 63.8 µM; with 786-0 renal, 34.9 µM; in the assay with HL-60(TB) leukemia, > 100 µM; in the assay with A498 renal, 8.74 µM. The TGI in the assay on NCI-H522 lung was 30.3 µM; with RPMI-8226 leukemia, > 96.1 µM; in the assay on SK-MEL-5 melanoma it was 67 µM; with PC-3 prostate, 45.6 µM; in the assay with COLO 205 colon, > 100 µM; in the assay with SN12C renal it was 56.7 µM.
Regarding `O=C(NNCc1ccco1)c1cc2ccccc2[nH]1`, the TGI in the assay on KM12 colon, with RXF 393 renal, with HOP-62 NSCLC, in the assay with OVCAR-5 ovarian, with UO-31 renal and with EKVX NSCLC was > 100 µM in each case. Moreover, the TGI was > 86.5 µM in the assay with OVCAR-8 ovarian; > 100 µM in the assay on A549 NSCLC; > 96.4 µM in the assay on HOP-92 NSCLC; > 100 µM with 786-0 renal; 96.9 µM with HL-60(TB) leukemia; > 100 µM with A498 renal. Further, the TGI in the assay on NCI-H522 lung, in the assay on RPMI-8226 leukemia, in the assay on SK-MEL-5 melanoma, in the assay on PC-3 prostate, with COLO 205 colon and with SN12C renal was > 100 µM each time.
Consider `C=CCN1C(=O)/C(=C/c2ccc(C)cc2)NC1=S`, for which the TGI with KM12 colon was > 100 µM; in the assay on RXF 393 renal, > 100 µM; in the assay with HOP-62 NSCLC, > 100 µM; in the assay on OVCAR-5 ovarian it was > 100 µM; with UO-31 renal, > 100 µM; with EKVX NSCLC, 97.1 µM. In addition, the TGI was > 100 µM in the assay on OVCAR-8 ovarian; > 100 µM in the assay on A549 NSCLC; > 100 µM with HOP-92 NSCLC; > 100 µM with 786-0 renal; 48.9 µM in the assay with HL-60(TB) leukemia; > 100 µM with A498 renal. Moreover, the TGI with NCI-H522 lung, with RPMI-8226 leukemia, in the assay with SK-MEL-5 melanoma, with PC-3 prostate, with COLO 205 colon and in the assay with SN12C renal was > 100 µM each time.
With `O=C1CCCC1C(O)(C(F)(F)F)C(F)(F)F` (centres undefined), the TGI in the assay with KM12 colon, in the assay with RXF 393 renal, in the assay with HOP-62 NSCLC, with OVCAR-5 ovarian, with UO-31 renal and in the assay with EKVX NSCLC was > 100 µM each time. For the same compound, the TGI with OVCAR-8 ovarian, in the assay on A549 NSCLC, with HOP-92 NSCLC, with 786-0 renal, in the assay with HL-60(TB) leukemia and in the assay on A498 renal was > 100 µM in each case. The TGI in the assay on NCI-H522 lung, in the assay with RPMI-8226 leukemia, in the assay with SK-MEL-5 melanoma, with PC-3 prostate, with COLO 205 colon and in the assay on SN12C renal was > 100 µM each time.
As to `CC1(C)C/C(=N/O)c2c(nc3ccc4ccccc4c3c2-c2ccc(Cl)cc2)C1`, the TGI was > 100 µM in the assay with KM12 colon; 39.4 µM in the assay with RXF 393 renal; 92.2 µM in the assay with HOP-62 NSCLC; > 100 µM in the assay on OVCAR-5 ovarian; 43.5 µM with UO-31 renal; 29.7 µM in the assay on EKVX NSCLC. Moreover, the TGI in the assay with OVCAR-8 ovarian was 25 µM; in the assay with A549 NSCLC it was 51 µM; with HOP-92 NSCLC it was 42.2 µM; in the assay on 786-0 renal, 15.2 µM; in the assay with HL-60(TB) leukemia, 26.1 µM; in the assay on A498 renal it was 39.6 µM. Also, the TGI in the assay with NCI-H522 lung is 28.6 µM; with RPMI-8226 leukemia it was > 100 µM; with SK-MEL-5 melanoma it was > 100 µM; in the assay with PC-3 prostate, > 100 µM; in the assay on COLO 205 colon, 72.8 µM; in the assay with SN12C renal, 22.7 µM.
